{"source": "PubChem BioAssay (NCI)", "assay_in_all_cases": "DTP human tumour cell line panel, 48 h", "key": {"SN12C renal": {"tested_on": "SN12C renal"}, "HT29 colon": {"tested_on": "HT29 colon"}, "SK-OV-3 ovarian": {"tested_on": "SK-OV-3 ovarian"}, "NCI/ADR-RES ovarian": {"tested_on": "NCI/ADR-RES ovarian"}, "SF-268 CNS": {"tested_on": "SF-268 CNS"}, "OVCAR-8 ovarian": {"tested_on": "OVCAR-8 ovarian"}, "UACC-62 melanoma": {"tested_on": "UACC-62 melanoma"}, "BT-549 breast": {"tested_on": "BT-549 breast"}, "SNB-19 CNS": {"tested_on": "SNB-19 CNS"}, "KM12 colon": {"tested_on": "KM12 colon"}, "SR leukemia": {"tested_on": "SR leukemia"}, "PC-3 prostate": {"tested_on": "PC-3 prostate"}, "CCRF-CEM leukemia": {"tested_on": "CCRF-CEM leukemia"}, "OVCAR-3 ovarian": {"tested_on": "OVCAR-3 ovarian"}, "UO-31 renal": {"tested_on": "UO-31 renal"}, "A498 renal": {"tested_on": "A498 renal"}, "NCI-H226 lung": {"tested_on": "NCI-H226 lung"}, "HCT-15 colon": {"tested_on": "HCT-15 colon"}, "IGROV1 ovarian": {"tested_on": "IGROV1 ovarian"}, "SK-MEL-28 melanoma": {"tested_on": "SK-MEL-28 melanoma"}, "HCT-116 colon": {"tested_on": "HCT-116 colon"}, "A549 NSCLC": {"tested_on": "A549 NSCLC"}, "U251 CNS": {"tested_on": "U251 CNS"}, "NCI-H23 lung": {"tested_on": "NCI-H23 lung"}, "SW-620 colon": {"tested_on": "SW-620 colon"}, "SF-539 CNS": {"tested_on": "SF-539 CNS"}, "SK-MEL-2 melanoma": {"tested_on": "SK-MEL-2 melanoma"}, "NCI-H522 lung": {"tested_on": "NCI-H522 lung"}, "HS 578T breast": {"tested_on": "HS 578T breast"}}, "note": "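In this assay, cells in 96-well plates receive the compound at five concentrations for 48 hours. Endpoints are linearly interpolated between the surrounding concentrations. The concentration for 50% growth inhibition is given as GI50. TGI marks complete inhibition of growth.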", "data": [{"smiles": "Nc1ccc(/C=C/c2ccc3ncccc3c2)cc1", "values": [{"measurement": "GI50", "setting": "SN12C renal", "value": "> 100", "unit": "µM"}, {"measurement": "TGI", "setting": "SN12C renal", "value": "> 100", "unit": "µM"}, {"measurement": "GI50", "setting": "HT29 colon", "value": "> 100", "unit": "µM"}, {"measurement": "TGI", "setting": "HT29 colon", "value": "> 100", "unit": "µM"}, {"measurement": "GI50", "setting": "SK-OV-3 ovarian", "value": "> 100", "unit": "µM"}, {"measurement": "TGI", "setting": "SK-OV-3 ovarian", "value": "> 100", "unit": "µM"}, {"measurement": "GI50", "setting": "NCI/ADR-RES ovarian", "value": "> 100", "unit": "µM"}, {"measurement": "TGI", "setting": "NCI/ADR-RES ovarian", "value": "> 100", "unit": "µM"}, {"measurement": "GI50", "setting": "SF-268 CNS", "value": "> 100", "unit": "µM"}, {"measurement": "TGI", "setting": "SF-268 CNS", "value": "> 100", "unit": "µM"}, {"measurement": "GI50", "setting": "OVCAR-8 ovarian", "value": "> 100", "unit": "µM"}, {"measurement": "TGI", "setting": "OVCAR-8 ovarian", "value": "> 100", "unit": "µM"}, {"measurement": "GI50", "setting": "UACC-62 melanoma", "value": "> 100", "unit": "µM"}, {"measurement": "TGI", "setting": "UACC-62 melanoma", "value": "> 100", "unit": "µM"}, {"measurement": "GI50", "setting": "BT-549 breast", "value": 5.29, "unit": "µM"}, {"measurement": "TGI", "setting": "BT-549 breast", "value": "> 100", "unit": "µM"}, {"measurement": "GI50", "setting": "SNB-19 CNS", "value": "> 100", "unit": "µM"}, {"measurement": "TGI", "setting": "SNB-19 CNS", "value": "> 100", "unit": "µM"}, {"measurement": "GI50", "setting": "KM12 colon", "value": 49.1, "unit": "µM"}, {"measurement": "TGI", "setting": "KM12 colon", "value": "> 100", "unit": "µM"}, {"measurement": "GI50", "setting": "SR leukemia", "value": "> 100", "unit": "µM"}, {"measurement": "TGI", "setting": "SR leukemia", "value": "> 100", "unit": "µM"}, {"measurement": "GI50", "setting": "PC-3 prostate", "value": 7.29, "unit": "µM"}, {"measurement": "TGI", "setting": "PC-3 prostate", "value": "> 100", "unit": "µM"}, {"measurement": "GI50", "setting": "CCRF-CEM leukemia", "value": 0.821, "unit": "µM"}, {"measurement": "TGI", "setting": "CCRF-CEM leukemia", "value": "> 100", "unit": "µM"}, {"measurement": "GI50", "setting": "OVCAR-3 ovarian", "value": "> 100", "unit": "µM"}, {"measurement": "TGI", "setting": "OVCAR-3 ovarian", "value": "> 100", "unit": "µM"}, {"measurement": "GI50", "setting": "UO-31 renal", "value": 2.32, "unit": "µM"}, {"measurement": "TGI", "setting": "UO-31 renal", "value": "> 100", "unit": "µM"}, {"measurement": "GI50", "setting": "A498 renal", "value": "> 100", "unit": "µM"}, {"measurement": "TGI", "setting": "A498 renal", "value": "> 100", "unit": "µM"}, {"measurement": "GI50", "setting": "NCI-H226 lung", "value": "> 100", "unit": "µM"}, {"measurement": "TGI", "setting": "NCI-H226 lung", "value": "> 100", "unit": "µM"}, {"measurement": "GI50", "setting": "HCT-15 colon", "value": "> 100", "unit": "µM"}, {"measurement": "TGI", "setting": "HCT-15 colon", "value": "> 100", "unit": "µM"}, {"measurement": "GI50", "setting": "IGROV1 ovarian", "value": "> 100", "unit": "µM"}, {"measurement": "TGI", "setting": "IGROV1 ovarian", "value": "> 100", "unit": "µM"}, {"measurement": "GI50", "setting": "SK-MEL-28 melanoma", "value": "> 100", "unit": "µM"}, {"measurement": "TGI", "setting": "SK-MEL-28 melanoma", "value": "> 100", "unit": "µM"}, {"measurement": "GI50", "setting": "HCT-116 colon", "value": "> 100", "unit": "µM"}, {"measurement": "TGI", "setting": "HCT-116 colon", "value": "> 100", "unit": "µM"}, {"measurement": "GI50", "setting": "A549 NSCLC", "value": "> 100", "unit": "µM"}, {"measurement": "TGI", "setting": "A549 NSCLC", "value": "> 100", "unit": "µM"}, {"measurement": "GI50", "setting": "U251 CNS", "value": "> 100", "unit": "µM"}, {"measurement": "TGI", "setting": "U251 CNS", "value": "> 100", "unit": "µM"}, {"measurement": "GI50", "setting": "NCI-H23 lung", "value": "> 100", "unit": "µM"}, {"measurement": "TGI", "setting": "NCI-H23 lung", "value": "> 100", "unit": "µM"}, {"measurement": "GI50", "setting": "SW-620 colon", "value": "> 100", "unit": "µM"}, {"measurement": "TGI", "setting": "SW-620 colon", "value": "> 100", "unit": "µM"}, {"measurement": "GI50", "setting": "SF-539 CNS", "value": "> 100", "unit": "µM"}, {"measurement": "TGI", "setting": "SF-539 CNS", "value": "> 100", "unit": "µM"}, {"measurement": "GI50", "setting": "SK-MEL-2 melanoma", "value": "> 100", "unit": "µM"}, {"measurement": "TGI", "setting": "SK-MEL-2 melanoma", "value": "> 100", "unit": "µM"}, {"measurement": "GI50", "setting": "NCI-H522 lung", "value": 19.9, "unit": "µM"}, {"measurement": "TGI", "setting": "NCI-H522 lung", "value": "> 100", "unit": "µM"}, {"measurement": "GI50", "setting": "HS 578T breast", "value": "> 100", "unit": "µM"}, {"measurement": "TGI", "setting": "HS 578T breast", "value": "> 100", "unit": "µM"}]}]}
